What follows are compounds tested against 5-HT2A receptor (Homo sapiens (Human), UniProt P28223) (assay: Receptor Selection and Amplification (R-SAT) functional antagonist assay). Conditions: not given.
Chain of 5-HT2A receptor (P28223 whole entry): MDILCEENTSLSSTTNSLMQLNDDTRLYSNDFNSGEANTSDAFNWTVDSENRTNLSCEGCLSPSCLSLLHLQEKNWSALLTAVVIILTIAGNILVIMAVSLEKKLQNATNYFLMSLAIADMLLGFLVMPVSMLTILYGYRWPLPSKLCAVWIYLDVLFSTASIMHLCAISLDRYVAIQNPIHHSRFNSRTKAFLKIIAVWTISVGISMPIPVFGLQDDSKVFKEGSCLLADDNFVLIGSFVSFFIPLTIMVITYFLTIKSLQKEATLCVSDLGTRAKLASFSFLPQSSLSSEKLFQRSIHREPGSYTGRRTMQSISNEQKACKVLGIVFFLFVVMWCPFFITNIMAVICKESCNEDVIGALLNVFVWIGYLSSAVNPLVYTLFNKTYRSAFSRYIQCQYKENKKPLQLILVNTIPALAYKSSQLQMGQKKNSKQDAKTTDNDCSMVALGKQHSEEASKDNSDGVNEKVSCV
In the case of `CC(C)COc1ccc(CC(=O)N(Cc2ccc(C(F)(F)F)cc2F)C2CCN(C)CC2)cc1.O=C(O)C(F)(F)F` [Compound 69], the “5-HT2a pKi” value is reported as 7.7.
`CN1CCC(N(Cc2ccc(F)cc2F)C(=O)OCc2ccc(OC(C)(C)C)cc2)CC1.O=C(O)C(F)(F)F` [Compound 72] was tested, and the “5-HT2a pKi” value was 10.0.
In the case of `CN1CCC(N(Cc2ccc(F)cc2F)C(=O)OCc2ccc(C(C)(F)F)cc2)CC1.O=C(O)C(F)(F)F` [Compound 73], the “5-HT2a pKi” value is reported as 9.4.
With `CC(C)Oc1ccc(COC(=O)N(Cc2ccc(C(F)(F)F)cc2Cl)C2CCN(C)CC2)cc1.O=C(O)C(F)(F)F` [Compound 78] the “5-HT2a pKi” value was 7.6.
`CC(C)Oc1ccc(COC(=O)N(Cc2ccc(F)cc2C(F)(F)F)C2CCN(C)CC2)cc1` [Compound 81] was tested, and the Ki was 2000 µM.

Same assay, conditions: R-SAT, transfected NIH3T3 cells; guidance: high affinity pKi≥8.4, moderate affinity pKi≥7.7
For `CC(C)COc1ccc(CC(=O)N(Cc2ccc(F)cc2Cl)C2CCN(C)CC2)cc1.O=C(O)C(F)(F)F` [Compound 61, N-[(2-chloro-4-fluorophenyl)methyl]-N-(1-methylpiperidin-4-yl)-2-[4-(2-methylpropoxy)phenyl]acetamide; trifluoroacetic acid], the “5-HT2a pKi” value was 6.7.
In the case of `CC(C)Oc1ccc(CC(=O)N(Cc2ccc(F)cc2Cl)C2CCN(C)CC2)cc1.O=C(O)C(F)(F)F` [Compound 62, N-[(2-chloro-4-fluorophenyl)methyl]-N-(1-methylpiperidin-4-yl)-2-[4-(propan-2-yloxy)phenyl]acetamide; trifluoroacetic acid], the “5-HT2a pKi” value is reported as 6.5.
`CC(C)Oc1ccc(COC(=O)N(Cc2ccc(F)cc2Cl)C2CCN(C)CC2)cc1` [Compound 63, [4-(propan-2-yloxy)phenyl]methyl N-[(2-chloro-4-fluorophenyl)-methyl]-N-(1-methylpiperidin-4-yl)carbamate] was tested, and the “5-HT2a pKi” value was 8.4.
With `CC(C)COc1ccc(COC(=O)N(Cc2ccc(Cl)cc2Cl)C2CCN(C)CC2)cc1` [Compound 64, [4-(2-methylpropoxy)phenyl]methyl N-[(2,4=dichlorophenyl)methyl]-N-(1-methylpiperidin-4-yl)carbamate] the “5-HT2a pKi” value was 8.0.
For `Cc1ccc(F)c(CN(C(=O)OCc2ccc(OC(C)C)cc2)C2CCN(C)CC2)c1F` [Compound 65, [4-(propan-2-yloxy)phenyl]methyl N-[(2,6-difluoro-3-methylphenyl)methyl]-N-(1-methylpiperidin-4-yl)carbamate], the “5-HT2a pKi” value was 7.7.
`CC(C)Oc1ccc(COC(=O)N(Cc2c(F)ccc(F)c2F)C2CCN(C)CC2)cc1` [Compound 66, [4-(propan-2-yloxy)phenyl]methyl N-(1-methylpiperidin-4-yl)-N-[(2,3,6-trifluorophenyl)methyl]carbamate] was tested, and the “5-HT2a pKi” value was 8.4.
In the case of `Cc1c(F)ccc(CN(C(=O)OCc2ccc(OC(C)C)cc2)C2CCN(C)CC2)c1F` [Compound 67, [4-(propan-2-yloxy)phenyl]methyl N-[(2,4-difluoro-3-methylphenyl)methyl]-N-(1-methylpiperidin-4-yl)carbamate], the “5-HT2a pKi” value is reported as 10.0.
`Cc1ccc(CN(C(=O)OCc2ccc(OC(C)C)cc2)C2CCN(C)CC2)c(F)c1` [Compound 68, [4-(propan-2-yloxy)phenyl]methyl N-[(2-fluoro-4-methylphenyl)-methyl]-N-(1-methylpiperidin-4-yl)carbamate] was tested, and the “5-HT2a pKi” value was 7.3.
`CC(C)Oc1ccc(COC(=O)N(Cc2c(F)cc(Cl)cc2F)C2CCN(C)CC2)cc1` [Compound 74] was tested, and the “5-HT2a pKi” value was 9.1.
`COc1cc(CN(C(=O)OCc2ccc(OC(C)C)cc2)C2CCN(C)CC2)ccc1Cl.O=C(O)C(F)(F)F` [Compound 75] was tested, and the “5-HT2a pKi” value was 6.8.
In the case of `CC(C)Oc1ccc(COC(=O)N(Cc2ccc(C(F)(F)F)cc2F)C2CCN(C)CC2)cc1.O=C(O)C(F)(F)F` [Compound 79], the “5-HT2a pKi” value is reported as 8.4.
For `CC(C)Oc1ccc(COC(=O)N(Cc2cc(F)c(F)cc2F)C2CCN(C)CC2)cc1` [Compound 80], the “5-HT2a pKi” value was 7.8.
`CC(C)COc1ccc(COC(=O)N(Cc2ccc(F)cc2O)C2CCN(C)CC2)cc1` [Compound 82, [4-(2-methylpropoxy)phenyl]methyl N-[(4-fluoro-2-hydroxyphenyl)methyl]-N-(1-methylpiperidin-4-yl)carbamate] was tested, and the “5-HT2a pKi” value was 7.8.

Reference: US11440884B2, “Compounds, salts thereof and methods for treatment of diseases” (ACADIA PHARMACEUTICALS INC., priority 2017, dated 2022)
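Note: Read-out is β-galactosidase marker gene activity with ONPG substrate, measured after five days of growth in 96-well plates holding the test compound.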
